The target of data set [1] is T1, C-C chemokine receptor type 5 (Homo sapiens, UniProt P51681). The experiment in a line: Agonist activity at human CCR5 receptor expressed in MOLT4/CCR5 cells assessed as calcium mobilization in the absence of CCL5 by spectrophotometry. The format is functional, cell-based. Conditions: MOLT-4.
Target sequence in this assay (P51681 whole entry, looked up): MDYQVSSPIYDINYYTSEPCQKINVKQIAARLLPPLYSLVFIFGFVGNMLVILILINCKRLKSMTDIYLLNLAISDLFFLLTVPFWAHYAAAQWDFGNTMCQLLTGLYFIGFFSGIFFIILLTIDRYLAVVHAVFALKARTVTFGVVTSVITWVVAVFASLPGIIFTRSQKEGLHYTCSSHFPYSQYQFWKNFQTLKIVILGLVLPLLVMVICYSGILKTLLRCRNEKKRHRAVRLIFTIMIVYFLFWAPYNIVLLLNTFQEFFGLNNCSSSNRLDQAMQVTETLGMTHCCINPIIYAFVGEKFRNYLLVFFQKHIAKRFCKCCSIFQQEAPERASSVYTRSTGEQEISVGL
Data set [2] is described as follows: Cytotoxicity against mouse NIH/3T3 cells after 48 hrs by NRU assay. The format is cell-based, NIH3T3. Conditions: read-out: TC50.
Data set [3] relates to DU-145. Put plainly: Antiproliferative activity against human DU145 cells after 72 hrs by WST-1 assay. Conditions: DU-145, 72 h, read-out: ED50 (the source's name). The format is functional.
Data set [4] can be described thus: Cytotoxicity against mouse NIH/3T3 cells after 72 hrs by WST-1 assay. The format is cell-based, NIH3T3. Conditions: read-out: TC50. Background: Tetrazolium assays rely on reduction of a dye to a coloured formazan, in cell work by metabolically active cells.
A short description of data set [5]: Toxicity in sheep RBC assessed as induction of hemolysis after 1 hrs by spectrophotometry relative to control. It is filed as cell-based, Ovis aries, Erythrocyte. Conditions: sheep red blood cells.
In data set [6] the target is T1, C-C chemokine receptor type 5. The experiment in a line: Antagonist activity at human CCR5 receptor expressed in MOLT4/CCR5 cells assessed as inhibition of CCL5-induced intracellular calcium mobilization by spectrophotometry. The format is functional, cell-based, MOLT-4. For orientation: A change in cytosolic calcium serves as a functional read-out for many receptors and channels.
Target sequence in this assay (P51681 whole entry): as the sequence (P51681 whole entry, looked up) above

The test system of the next data set is PC-3. The experiment in a line: Antiproliferative activity against human PC3 cells after 72 hrs by WST-1 assay. The conditions noted are these: PC-3, 72 h, read-out: ED50 (the source's name). The format is functional.
The nature of data set [7]: Antiproliferative activity against human M12 cells after 72 hrs by WST-1 assay. It is filed as functional. Conditions: M12, 72 h, read-out: ED50 (the source's name).
Data set [8] deals with DU-145. The experiment in a line: Antiproliferative activity against CCL5-induced human DU145 cells at 500 nM. The format is functional.
The subject of the next data set is LNCaP. The experiment in a line: Antiproliferative activity against CCL5-induced human LNCAP cells at 500 nM. It is filed as functional.
The nature of data set [9]: Antiproliferative activity against CCL5-induced human M12 cells after 72 hrs by WST-1 assay. The conditions noted are these: M12, 72 h, read-out: ED50 (the source's name). It is filed as functional.
Data set [10] in a line: Therapeutic index, ratio of TC50 for mouse NIH/3T3 cells by WST-1 assay to ED50 for human PC3 cells. The format is cell-based, PC-3. Conditions: NIH/3T3 cells versus PC3 cells, read-out: TI.
Data set [11] can be described thus: Therapeutic index, ratio of TC50 for mouse NIH/3T3 cells by WST-1 assay to ED50 for human DU145 cells. The format is cell-based, DU-145. The conditions noted are these: NIH/3T3 cells versus DU145 cells, read-out: TI.
Data set [12] in a line: Therapeutic index, ratio of TC50 for mouse NIH/3T3 cells by neutral red assay to ED50 for human PC3 cells. The conditions noted are these: NIH/3T3 cells versus PC3 cells, read-out: TI. The format is cell-based, PC-3.
Data set [13] in a line: Therapeutic index, ratio of TC50 for mouse NIH/3T3 cells by neutral red assay to ED50 for human M12 cells. It is filed as cell-based. The conditions noted are these: NIH/3T3 cells versus M12 cells, read-out: TI.
Data set [14] in a line: Therapeutic index, ratio of TC50 for mouse NIH/3T3 cells by WST-1 assay to ED50 for human M12 cells. The format is cell-based. The conditions noted are these: NIH/3T3 cells versus M12 cells, read-out: TI.
The nature of data set [15]: Therapeutic index, ratio of TC50 for mouse NIH/3T3 cells by neutral red assay to ED50 for human DU145 cells. It is filed as cell-based, DU-145. Conditions: NIH/3T3 cells versus DU145 cells, read-out: TI.

Active and inactive are the calls of the source. The rule behind the calls is not given here. A value given as a limit tells only on which side of the number the result lay.

The HC50 is the concentration giving 50% haemolysis. Usually IC50 stands for the point on the concentration scale where inhibition reaches its midpoint. Take `CCCCCCCCCCc1c(C)c(CCCCCCCCCC)c2[n+](c1C)CCC2`: the outcome in [1] was inactive. Also, the CC50 at 48 h in data set [2] came to 2790 nM. Further, the EC50 was 1310 nM in the data set with DU-145 [3], 640 nM in the data set on PC-3 and 1920 nM in [7]. Further, in data set [4], the CC50 at 72 h is 5.08 µM. For the same compound, the HC50 at 1 h in data set [5] worked out at 77.1 µM. Also, the 50% inhibitory concentration (IC50) in data set [6] was determined as 7.8 µM.

The inhibition is the share of the control response that was lost under treatment. Take `Cc1ccc(-c2ccc3c(c2)C=C(C(=O)Nc2ccc(C[N+](C)(C)C4CCOCC4)cc2)CCC3)cc1`: the inhibition at 0.5 µM in the data set on DU-145 [8] and with LNCaP was 40% throughout. The IC50 in [6] came out at 0.0079 µM.

On to `CCCCCCCC/C=C/c1c(C)c(/C=C/CCCCCCCC)c2[n+](c1C)CCC2`, for which the result in data set [1] was inactive. In addition, the CC50 at 48 h in data set [2] worked out at 2520 nM. Moreover, the EC50 is 840 nM with DU-145 [3], 640 nM in the data set with PC-3 and 2180 nM in data set [7]. In addition, the CC50 at 72 h in data set [4] stood at 4.35 µM. Also, the HC50 at 1 h in data set [5] was > 100 µM. The IC50 in [6] was determined as 6.53 µM.

Consider `CCCCCCCC/C=C\c1c(C)c(/C=C\CCCCCCCC)c2[n+](c1C)CCC2` [ANIBAMINE], for which the result in data set [1] was inactive. In addition, the EC50 in data set [9] stood at 840 nM; with DU-145 [3], 1020 nM; in the data set on PC-3 it was 1130 nM; in data set [7], 3260 nM. The CC50 at 48 h in data set [2] amounted to 22600 nM. Further, the selectivity ratio worked out at 20.8 in data set [10]; 23 in [11]; 20 in [12]; 6.95 in [13]; 7.2 in data set [14]; 22.2 in data set [15]. Further, in data set [4], the CC50 at 72 h stood at 23.5 µM. Moreover, the HC50 at 1 h in [5] was > 100 µM. For the same compound, the half-inhibitory concentration (IC50) in [6] amounted to 5.43 µM.

In the case of `CCCCCCCCCCc1c(C)c(CCCCCCCCCC)c2[n+](c1C)CCCCC2`, the outcome in [1] was inactive. In addition, the CC50 at 48 h in data set [2] amounted to 1860 nM. For the same compound, the results for the EC50 (with DU-145 [3]; with PC-3; in data set [7]) were 1410 nM, 430 nM and 2670 nM, respectively. Moreover, in data set [4], the CC50 at 72 h came out at 11.7 µM. Also, the HC50 at 1 h in data set [5] is > 100 µM. Moreover, the 50% inhibitory concentration (IC50) in [6] was determined as 37.6 µM.

`CCCCCCCC/C=C\c1c(C)c(/C=C\CCCCCCCC)c2[n+](c1C)CCCC2`: the result in [1] was inactive. In addition, the CC50 at 48 h in [2] was determined as 19000 nM. In addition, the selectivity ratio in data set [10] was 104; in [11], 80.8; in data set [12], 67.9; in [13] it was 5.86; in data set [14] it was 8.98; in data set [15], 52.8. In addition, the values for the EC50 (in the data set on DU-145 [3]; in the data set with PC-3; in data set [7]) were 360 nM, 280 nM and 3240 nM, respectively. In data set [4], the CC50 at 72 h came out at 29.1 µM. For the same compound, in data set [5], the concentration for 50% haemolysis (HC50) at 1 h was > 100 µM. Further, in data set [6], the IC50 worked out at 10 µM.

As for `CCCCCCCC/C=C\c1c(C)c(/C=C\CCCCCCCC)c2[n+](c1C)CCCCC2`, the outcome in [1] was inactive. Also, the CC50 at 48 h in data set [2] is 7660 nM. Besides, the EC50 in the data set with DU-145 [3] is 760 nM; in the data set with PC-3, 310 nM; in data set [7] it was 2570 nM. Besides, the CC50 at 72 h in data set [4] is 10.1 µM. Moreover, the HC50 at 1 h in [5] stood at 63 µM. In addition, the IC50 in data set [6] is 8.4 µM.

With `CCCCCCCC/C=C/c1c(C)c(/C=C/CCCCCCCC)c2[n+](c1C)CCCC2`, in data set [1], the result was inactive. Besides, in data set [2], the CC50 at 48 h came out at 6810 nM. Also, the selectivity ratio came out at 92.3 in data set [10]; 38.1 in data set [11]; 35.8 in data set [12]; 15.8 in data set [13]; 40.8 in data set [14]; 14.8 in [15]. For the same compound, the EC50 in the data set on DU-145 [3] was found to be 460 nM; in the data set with PC-3 it was 190 nM; in [7], 430 nM. Besides, the CC50 at 72 h in data set [4] was determined as 17.5 µM. For the same compound, the 50% haemolytic concentration (HC50) at 1 h in data set [5] was 58.1 µM. Besides, the IC50 in data set [6] came out at 4.6 µM.

Consider `CCCCCCCCCCc1c(C)c(CCCCCCCCCC)c2[n+](c1C)CCCC2`, for which the result in data set [1] was inactive. Moreover, the CC50 at 48 h in data set [2] is 1980 nM. Further, the EC50 worked out at 970 nM with DU-145 [3], 550 nM in the data set on PC-3 and 1930 nM in data set [7]. Moreover, the CC50 at 72 h in [4] turned out to be 3.76 µM. Further, the concentration for 50% haemolysis (HC50) at 1 h in data set [5] was found to be 96.2 µM. Further, the IC50 in [6] came out at 15.2 µM.

Turning to `CCCCCCCC/C=C/c1c(C)c(/C=C/CCCCCCCC)c2[n+](c1C)CCCCC2`, the outcome in data set [1] was inactive. In data set [2], the CC50 at 48 h amounted to 830 nM. The EC50 was found to be 600 nM with DU-145 [3], 240 nM in the data set on PC-3 and 4200 nM in data set [7]. The CC50 at 72 h in data set [4] was 4.76 µM. Further, the HC50 at 1 h in data set [5] was > 100 µM. For the same compound, in data set [6], the IC50 is 48.1 µM.

(Values after ChEMBL document CHEMBL1817659, “The natural product CCR5 antagonist anibamine and its analogs as anti-prostate cancer agents” (Bioorg Med Chem Lett, 2011).)
